Holding throughout (test): Microtitre plate assay, IC90 determination
Common to all, as to format: cell-based

In experiment [1] the test system is SPY 8668 (Streptococcus pyogens (ATCC8668)). The conditions noted are these: for IC90 (μg/ml) SPY 8668: Streptococcus pyogens (ATCC8668).
Experiment [2] has as its system STA RMETH (methicilline resistant Staphylococcus aureus (MRSA), a clinical isolate from the University of Antwerp).
Experiment [3] has as its system EFA 29212 (Enterococcus faecalis (ATCC29212)). The conditions noted are these: for IC90 (μg/ml) EFA 29212: Enterococcus faecalis (ATCC29212); for IC90: Enterococcus faecalis, ATCC29212, Enterococcus faecalis (ATCC29212), read-out: IC90 (μg/ml) EFA 29212.
Experiment [4] relates to SPN 6305 (Streptococcus pneumoniae (ATCC6305)). The settings on record: Streptococcus pneumoniae (ATCC6305). The essentials:
(§1)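 Growth-inhibition endpoint: resazurin added 3 h after inoculation, plates incubated overnight, fluorescence at 530/590 nm after 24 h at 37 °C. Inocula of roughly 10–60 CFU per well in Mueller-Hinton medium; compounds titrated five-fold. IC90 reported as μg/ml.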

The subject of experiment [5] is STA 29213 (Staphylococcus aureus (ATCC29213)). The settings on record: for IC90 (μg/ml) STA 29213: Staphylococcus aureus (ATCC29213). A digest of the protocol:
as §1

Experiment [6] deals with BSU 43639 (Bacillus subtilis (ATCC43639)). The settings on record: for IC90 (μg/ml) BSU 43639: Bacillus subtilis (ATCC43639); for IC90: Bacillus subtilis, ATCC43639, Bacillus subtilis (ATCC43639), read-out: IC90 (μg/ml) BSU 43639.
Experiment [7] deals with PAE 27853 (Pseudomonas aeruginosa (ATCC27853)). The settings on record: for IC90 (μg/ml) PAE 27853: Pseudomonas aeruginosa (ATCC27853).
The subject of experiment [8] is LMO 49594 (Listeria monocytogenes (ATCC49594)). The settings on record: for IC90 (μg/ml) LMO 49594: Listeria monocytogenes (ATCC49594); for IC90: Listeria monocytogenes, ATCC49594, Listeria monocytogenes (ATCC49594), read-out: IC90 (μg/ml) LMO 49594.
Experiment [9] has as its system STA 25923 (Staphylococcus aureus (ATCC25923)). The conditions noted are these: for IC90 (μg/ml) STA 25923: Staphylococcus aureus (ATCC25923); for IC90: Staphylococcus aureus, ATCC25923, Staphylococcus aureus (ATCC25923), read-out: IC90 (μg/ml) STA 25923.

From patent publication US8841321B2, “Quinoline derivatives as antibacterial agents” (Janssen Pharmaceutica NV, priority 2005, dated 2014) come the findings set out here.

Values after ≈ are worked out from the molar mass of the structure shown.

In the case of `COc1nc2ccc(Br)cc2cc1C(c1ccccc1)C(O)(CCCCN(C)C)c1ccccc1` (stereo not drawn) [Compound 21], the “IC90 (μg/ml) SPY 8668” value in experiment [1] turned out to be 10.6 µg/mL (≈ 19.9 µM). Moreover, the “IC90 (μg/ml) STA RMETH” value in [2] is 10.6 µg/mL (≈ 19.9 µM). In experiment [3], the “IC90 (μg/ml) EFA 29212” value came to 21.2 µg/mL (≈ 39.7 µM). Further, the “IC90 (μg/ml) SPN 6305” value in [4] turned out to be 11.9 µg/mL (≈ 22.3 µM). Moreover, the “IC90 (μg/ml) STA 29213” value in experiment [5] amounted to 10.6 µg/mL (≈ 19.9 µM). Further, the “IC90 (μg/ml) BSU 43639” value in [6] was found to be 10.6 µg/mL (≈ 19.9 µM). Besides, the “IC90 (μg/ml) PAE 27853” value in [7] stood at 10.6 µg/mL (≈ 19.9 µM). The “IC90 (μg/ml) LMO 49594” value in experiment [8] was 10.6 µg/mL (≈ 19.9 µM). Further, in [9], the “IC90 (μg/ml) STA 25923” value turned out to be 10.6 µg/mL (≈ 19.9 µM).

`COc1nc2ccc(Br)cc2cc1C(c1ccccc1)C(O)(CCCCN(C)C)c1ccc2ccccc2c1` (stereo not drawn) [Compound 23]: in [1], the “IC90 (μg/ml) SPY 8668” value came out at 46.4 µg/mL (≈ 79.5 µM). The “IC90 (μg/ml) STA RMETH” value in experiment [2] was 58.4 µg/mL (≈ 100 µM). In [3], the “IC90 (μg/ml) EFA 29212” value is 4.1 µg/mL (≈ 7.03 µM). Besides, in experiment [4], the “IC90 (μg/ml) SPN 6305” value was 11.6 µg/mL (≈ 19.9 µM). The “IC90 (μg/ml) STA 29213” value in [5] is 1.9 µg/mL (≈ 3.26 µM). For the same compound, in experiment [6], the “IC90 (μg/ml) BSU 43639” value came to 58.4 µg/mL (≈ 100 µM). In [7], the “IC90 (μg/ml) PAE 27853” value worked out at 1.9 µg/mL (≈ 3.26 µM). Further, in experiment [8], the “IC90 (μg/ml) LMO 49594” value is 36.8 µg/mL (≈ 63.1 µM). Moreover, the “IC90 (μg/ml) STA 25923” value in [9] turned out to be 58.4 µg/mL (≈ 100 µM).

As to `COc1nc2ccc(Br)cc2cc1C(c1ccccc1)C(O)(CCCCN(C)C)c1ccc2ccccc2c1` (stereo not drawn) [Compound 24], the “IC90 (μg/ml) SPY 8668” value in [1] was found to be 1.9 µg/mL (≈ 3.26 µM). The “IC90 (μg/ml) STA RMETH” value in experiment [2] amounted to 1.9 µg/mL (≈ 3.26 µM). In addition, the “IC90 (μg/ml) EFA 29212” value in experiment [3] worked out at 1.9 µg/mL (≈ 3.26 µM). The “IC90 (μg/ml) SPN 6305” value in [4] is 1.9 µg/mL (≈ 3.26 µM). The “IC90 (μg/ml) STA 29213” value in [5] worked out at 1.9 µg/mL (≈ 3.26 µM). For the same compound, in experiment [6], the “IC90 (μg/ml) BSU 43639” value was found to be 1.9 µg/mL (≈ 3.26 µM). In experiment [7], the “IC90 (μg/ml) PAE 27853” value worked out at 1.9 µg/mL (≈ 3.26 µM). For the same compound, in experiment [8], the “IC90 (μg/ml) LMO 49594” value was found to be 1.9 µg/mL (≈ 3.26 µM). In experiment [9], the “IC90 (μg/ml) STA 25923” value was determined as 0.5 µg/mL (≈ 0.857 µM).

For the compound `COc1nc2ccc(Br)cc2cc1C(c1ccccc1)C(O)(CCCCN(C)C)c1ccc2ccccc2c1` (stereo not drawn) [Compound 25], the “IC90 (μg/ml) SPY 8668” value in experiment [1] stood at 9.3 µg/mL (≈ 15.9 µM). In addition, the “IC90 (μg/ml) STA RMETH” value in [2] came out at 58.4 µg/mL (≈ 100 µM). For the same compound, in experiment [3], the “IC90 (μg/ml) EFA 29212” value was 4.1 µg/mL (≈ 7.03 µM). Further, the “IC90 (μg/ml) SPN 6305” value in experiment [4] stood at 2.3 µg/mL (≈ 3.94 µM). The “IC90 (μg/ml) STA 29213” value in experiment [5] was determined as 1.9 µg/mL (≈ 3.26 µM). Also, in [6], the “IC90 (μg/ml) BSU 43639” value was found to be 58.4 µg/mL (≈ 100 µM). The “IC90 (μg/ml) PAE 27853” value in experiment [7] worked out at 1.9 µg/mL (≈ 3.26 µM). For the same compound, the “IC90 (μg/ml) LMO 49594” value in experiment [8] was 9.3 µg/mL (≈ 15.9 µM). Further, in [9], the “IC90 (μg/ml) STA 25923” value amounted to 58.4 µg/mL (≈ 100 µM).

With `COc1ccc2cc(C(O)(CCCCN(C)C)C(c3ccccc3)c3cc4c(Br)cccc4nc3OC)ccc2c1` (stereo not drawn) [Compound 27], the “IC90 (μg/ml) SPY 8668” value in experiment [1] was 48.7 µg/mL (≈ 79.4 µM). Also, the “IC90 (μg/ml) STA RMETH” value in experiment [2] came to 61.4 µg/mL (≈ 100 µM). The “IC90 (μg/ml) EFA 29212” value in experiment [3] was determined as 61.4 µg/mL (≈ 100 µM). In addition, the “IC90 (μg/ml) SPN 6305” value in experiment [4] is 61.4 µg/mL (≈ 100 µM). Further, the IC90 in [5] (Staphylococcus aureus, ATCC29213, Staphylococcus aureus (ATCC29213), read-out: IC90 (μg/ml) STA 29213) was 1.9 µg/mL (≈ 3.1 µM); in [6], 48.7 µg/mL (≈ 79.4 µM); in experiment [8], 61.4 µg/mL (≈ 100 µM); in experiment [9], 61.4 µg/mL (≈ 100 µM). Moreover, in experiment [7], the “IC90 (μg/ml) PAE 27853” value turned out to be 9.7 µg/mL (≈ 15.8 µM).

With `COc1ccc2cc(C(O)(CCCCN(C)C)C(c3ccccc3)c3cc4ccc(Br)cc4nc3OC)ccc2c1` (stereo not drawn) [Compound 31], the IC90 was determined as 4.3 µg/mL (≈ 7.01 µM) in experiment [1] (Streptococcus, ATCC8668, Streptococcus pyogens (ATCC8668), read-out: IC90 (μg/ml) SPY 8668); 4.3 µg/mL (≈ 7.01 µM) in [2] (Staphylococcus aureus, MRSA, read-out: IC90 (μg/ml) STA RMETH); 10.9 µg/mL (≈ 17.8 µM) in [3]; 9.7 µg/mL (≈ 15.8 µM) in experiment [6]; 1.9 µg/mL (≈ 3.1 µM) in experiment [7] (Pseudomonas aeruginosa, ATCC27853, Pseudomonas aeruginosa (ATCC27853), read-out: IC90 (μg/ml) PAE 27853); 4.3 µg/mL (≈ 7.01 µM) in [8]. The IC90 in experiment [9] was determined as 12.2 µg/mL (≈ 19.9 µM). In addition, the “IC90 (μg/ml) SPN 6305” value in experiment [4] worked out at 9.7 µg/mL (≈ 15.8 µM). In addition, the “IC90 (μg/ml) STA 29213” value in experiment [5] was 1.9 µg/mL (≈ 3.1 µM).

`COc1nc2ccc(Br)cc2cc1C(c1ccccc1)C(O)(CCCN(C)C)c1ccccc1` (stereo not drawn) [Compound 44]: the “IC90 (μg/ml) SPY 8668” value in experiment [1] worked out at 9.2 µg/mL (≈ 17.7 µM). In addition, in experiment [2], the “IC90 (μg/ml) STA RMETH” value came to 13.1 µg/mL (≈ 25.2 µM). Also, the IC90 in experiment [3] was determined as 26 µg/mL (≈ 50 µM); in experiment [6] it was 41.3 µg/mL (≈ 79.5 µM). Moreover, the “IC90 (μg/ml) SPN 6305” value in [4] worked out at 11.6 µg/mL (≈ 22.3 µM). Further, the “IC90 (μg/ml) STA 29213” value in experiment [5] is 10.4 µg/mL (≈ 20 µM). In addition, the “IC90 (μg/ml) PAE 27853” value in experiment [7] was found to be 10.4 µg/mL (≈ 20 µM). For the same compound, the “IC90 (μg/ml) LMO 49594” value in [8] worked out at 13.1 µg/mL (≈ 25.2 µM). Further, in experiment [9], the “IC90 (μg/ml) STA 25923” value stood at 13.1 µg/mL (≈ 25.2 µM).
